Legend:
Format in all cases: functional
Macrophage [1] = assay: Antiinflammatory activity in Escherichia coli O6:K2:H1-induced human M1 macrophage assessed as change in 17-HDHA level at 1 uM preincubated for 10 mins followed by Escherichia coli O6:K2:H1-stimulation and measured after 180 mins by UPLC-MS/MS analysis relative to control
Macrophage [2] = assay: Antiinflammatory activity in Escherichia coli O6:K2:H1-induced human M1 macrophage assessed as change in 5-HEPE level at 10 uM preincubated for 10 mins followed by Escherichia coli O6:K2:H1-stimulation and measured after 180 mins by UPLC-MS/MS analysis relative to control
Macrophage [3] = assay: Antiinflammatory activity in Escherichia coli O6:K2:H1-induced human M2 macrophage assessed as change in PGD2 level at 10 uM preincubated for 10 mins followed by Escherichia coli O6:K2:H1-stimulation and measured after 180 mins by UPLC-MS/MS analysis relative to control
Macrophage [4] = assay: Antiinflammatory activity in Escherichia coli O6:K2:H1-induced human M2 macrophage assessed as change in 5-HETE level at 10 uM preincubated for 10 mins followed by Escherichia coli O6:K2:H1-stimulation and measured after 180 mins by UPLC-MS/MS analysis relative to control
Macrophage [5] = assay: Antiinflammatory activity in Escherichia coli O6:K2:H1-induced human M1 macrophage assessed as change in […] level at 10 uM preincubated for 10 mins followed by Escherichia coli O6:K2:H1-stimulation and measured after 180 mins by UPLC-MS/MS analysis relative to control
Macrophage [6] = assay: Antiinflammatory activity in Escherichia coli O6:K2:H1-induced human M2 macrophage assessed as change in PGE2 level at 1 uM preincubated for 10 mins followed by Escherichia coli O6:K2:H1-stimulation and measured after 180 mins by UPLC-MS/MS analysis relative to control
Macrophage [7] = assay: Antiinflammatory activity in Escherichia coli O6:K2:H1-induced human M1 macrophage assessed as change in 17-HDHA level at 10 uM preincubated for 10 mins followed by Escherichia coli O6:K2:H1-stimulation and measured after 180 mins by UPLC-MS/MS analysis relative to control
Macrophage [8] = assay: Antiinflammatory activity in Escherichia coli O6:K2:H1-induced human M2 macrophage assessed as change in 15-HETE level at 1 uM preincubated for 10 mins followed by Escherichia coli O6:K2:H1-stimulation and measured after 180 mins by UPLC-MS/MS analysis relative to control
Macrophage [9] = assay: Antiinflammatory activity in Escherichia coli O6:K2:H1-induced human M2 macrophage assessed as change in 18-HEPE level at 10 uM preincubated for 10 mins followed by Escherichia coli O6:K2:H1-stimulation and measured after 180 mins by UPLC-MS/MS analysis relative to control
Macrophage [10] = assay: Antiinflammatory activity in Escherichia coli O6:K2:H1-induced human M1 macrophage assessed as change in 7-HDHA level at 1 uM preincubated for 10 mins followed by Escherichia coli O6:K2:H1-stimulation and measured after 180 mins by UPLC-MS/MS analysis relative to control
Macrophage [11] = assay: Antiinflammatory activity in Escherichia coli O6:K2:H1-induced human M2 macrophage assessed as change in 12-HEPE level at 1 uM preincubated for 10 mins followed by Escherichia coli O6:K2:H1-stimulation and measured after 180 mins by UPLC-MS/MS analysis relative to control
Macrophage [12] = assay: Antiinflammatory activity in Escherichia coli O6:K2:H1-induced human M1 macrophage assessed as change in 5.15-dlHETE level at 1 uM preincubated for 10 mins followed by Escherichia coli O6:K2:H1-stimulation and measured after 180 mins by UPLC-MS/MS analysis relative to control
Macrophage [13] = assay: Antiinflammatory activity in Escherichia coli O6:K2:H1-induced human M1 macrophage assessed as change in 4-HDHA level at 1 uM preincubated for 10 mins followed by Escherichia coli O6:K2:H1-stimulation and measured after 180 mins by UPLC-MS/MS analysis relative to control
Macrophage [14] = assay: Antiinflammatory activity in Escherichia coli O6:K2:H1-induced human M2 macrophage assessed as change in 17-HDHA level at 1 uM preincubated for 10 mins followed by Escherichia coli O6:K2:H1-stimulation and measured after 180 mins by UPLC-MS/MS analysis relative to control
Macrophage [15] = assay: Antiinflammatory activity in Escherichia coli O6:K2:H1-induced human M1 macrophage assessed as change in 15-HETE level at 1 uM preincubated for 10 mins followed by Escherichia coli O6:K2:H1-stimulation and measured after 180 mins by UPLC-MS/MS analysis relative to control
Macrophage [16] = assay: Antiinflammatory activity in Escherichia coli O6:K2:H1-induced human M2 macrophage assessed as change in […] level at 1 uM preincubated for 10 mins followed by Escherichia coli O6:K2:H1-stimulation and measured after 180 mins by UPLC-MS/MS analysis relative to control
Macrophage [17] = assay: Antiinflammatory activity in Escherichia coli O6:K2:H1-induced human M2 macrophage assessed as change in 5-HEPE level at 1 uM preincubated for 10 mins followed by Escherichia coli O6:K2:H1-stimulation and measured after 180 mins by UPLC-MS/MS analysis relative to control
Macrophage [18] = assay: Antiinflammatory activity in Escherichia coli O6:K2:H1-induced human M1 macrophage assessed as change in PGD2 level at 1 uM preincubated for 10 mins followed by Escherichia coli O6:K2:H1-stimulation and measured after 180 mins by UPLC-MS/MS analysis relative to control
Macrophage [19] = assay: Antiinflammatory activity in Escherichia coli O6:K2:H1-induced human M1 macrophage assessed as change in 4-HDHA level at 10 uM preincubated for 10 mins followed by Escherichia coli O6:K2:H1-stimulation and measured after 180 mins by UPLC-MS/MS analysis relative to control
Macrophage [20] = assay: Antiinflammatory activity in Escherichia coli O6:K2:H1-induced human M2 macrophage assessed as change in LTB4 level at 1 uM preincubated for 10 mins followed by Escherichia coli O6:K2:H1-stimulation and measured after 180 mins by UPLC-MS/MS analysis relative to control
Macrophage [21] = assay: Antiinflammatory activity in Escherichia coli O6:K2:H1-induced human M2 macrophage assessed as change in PGE2 level at 10 uM preincubated for 10 mins followed by Escherichia coli O6:K2:H1-stimulation and measured after 180 mins by UPLC-MS/MS analysis relative to control
Macrophage [22] = assay: Antiinflammatory activity in Escherichia coli O6:K2:H1-induced human M1 macrophage assessed as change in PGE2 level at 10 uM preincubated for 10 mins followed by Escherichia coli O6:K2:H1-stimulation and measured after 180 mins by UPLC-MS/MS analysis relative to control
Macrophage [23] = assay: Antiinflammatory activity in Escherichia coli O6:K2:H1-induced human M1 macrophage assessed as change in LTB4 level at 10 uM preincubated for 10 mins followed by Escherichia coli O6:K2:H1-stimulation and measured after 180 mins by UPLC-MS/MS analysis relative to control

Compound: O=C(Cc1ccc(Oc2nc3ccccc3s2)cc1F)NCCc1ccc(F)cc1
- Activity (Macrophage [1]): 97%
- Activity (Macrophage [2]): 65%
- Activity (Macrophage [3]): 64%
- Activity (Macrophage [4]): 44%
- Activity (Macrophage [5]): 82%
- Activity (Macrophage [6]): 61%
- Activity (Macrophage [7]): 269%
- Activity (Macrophage [8]): 82%
- Activity (Macrophage [9]): 96%
- Activity (Macrophage [10]): 113%
- Activity (Macrophage [11]): 78%
- Activity (Macrophage [12]): 152%
- Activity (Macrophage [13]): 88%
- Activity (Macrophage [14]): 106%
- Activity (Macrophage [15]): 102%
- Activity (Macrophage [16]): 64%
- Activity (Macrophage [17]): 93%
- Activity (Macrophage [18]): 127%
- Activity (Macrophage [19]): 72%
- Activity (Macrophage [20]): 72%
- Activity (Macrophage [21]): 51%
- Activity (Macrophage [22]): 77%
- Activity (Macrophage [23]): 11%

Reference: ChEMBL document CHEMBL4342480, “Design of Dual Inhibitors of Soluble Epoxide Hydrolase and LTA4 Hydrolase” (ACS Med Chem Lett, 2020)
